Here are results for 13 compounds from patent publication US20260297070A1, “CYCLIC [COMPOUND LEFT OUT] WRN INHIBITORS” (Nimbus Wadjet, Inc., priority 2023, published 2026).

T1 sequence (Q14191 with tags, fused parts or gaps L1074F limits assumed): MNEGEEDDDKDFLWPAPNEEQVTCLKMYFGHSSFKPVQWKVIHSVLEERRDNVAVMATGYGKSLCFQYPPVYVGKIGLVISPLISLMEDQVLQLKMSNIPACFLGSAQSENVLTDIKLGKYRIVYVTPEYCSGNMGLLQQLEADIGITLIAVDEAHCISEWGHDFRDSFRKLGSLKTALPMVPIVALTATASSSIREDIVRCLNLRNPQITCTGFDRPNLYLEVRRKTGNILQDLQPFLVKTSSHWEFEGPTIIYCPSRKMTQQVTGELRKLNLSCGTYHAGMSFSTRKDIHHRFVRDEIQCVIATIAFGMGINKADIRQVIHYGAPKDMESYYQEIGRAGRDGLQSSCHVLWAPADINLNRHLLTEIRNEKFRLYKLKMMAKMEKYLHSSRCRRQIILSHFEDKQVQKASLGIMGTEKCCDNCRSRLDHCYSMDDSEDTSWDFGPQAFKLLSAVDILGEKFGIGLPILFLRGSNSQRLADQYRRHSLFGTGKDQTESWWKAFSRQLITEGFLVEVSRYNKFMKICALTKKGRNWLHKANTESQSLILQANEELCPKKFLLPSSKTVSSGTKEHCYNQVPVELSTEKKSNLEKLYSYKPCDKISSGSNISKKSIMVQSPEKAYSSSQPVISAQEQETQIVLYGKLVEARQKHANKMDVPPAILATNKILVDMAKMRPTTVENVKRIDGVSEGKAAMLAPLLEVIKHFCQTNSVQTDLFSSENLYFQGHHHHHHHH

This test addresses T1, human Werner helicase (WRN-BV08, Uniprot Q14191, amino acids 517-1235 with L1074F point mutation) (Homo sapiens, UniProt Q14191, L1074F).
T1 construct: Uniprot Q14191, amino acids 517-1235 with L1074F point mutation; TEV-cleavable 8×His (C, cleaved yes); made in house; host or cells: Sf9 insect cells (baculovirus)
Briefly: WRN (BV08) ADP-Glo Assay. The format is biochemical. Particulars: 0.15 nM WRN, 5 μM ATP, 0.1 nM DNA duplex, 15 min preincubation, 60 min at 25° C., pH 7.5, 1% DMSO; read-out: ADP-Glo_hWRN_IC50. A digest of the protocol: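 ADP-Glo luminescence read-out of ATP hydrolysis. Conditions: 0.15 nM WRN, 5 μM ATP, 0.1 nM DNA duplex, 1% DMSO, 60 min at 25 °C after 15 min compound preincubation. Max/min controls were DMSO and 20 μM NSC-617145; IC50 from four-parameter fit.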
For the compound `COc1cc(CN(C(=O)Cc2ccc(-n3cccc3C)cn2)C2C=CS(=O)(=O)C2)ccn1` (stereo not shown) [I-250, N-(1,1-dioxo-2,3-dihydro-1lambda6-thiophen-3-yl)-N-[(2-methoxypyridin-4-yl)methyl]-2-[5-(2-methyl-1H-pyrrol-1-yl)pyridin-2-yl]acetamide], the IC50 lay within 5 to 10 µM.
`O=C(Cc1ccc(-n2cccc2)cc1)N(Cc1ccc2nccnc2c1)C1C=CS(=O)(=O)C1` (stereo not shown) [I-251, N-(1,1-dioxo-2,3-dihydro-1lambda6-thiophen-3-yl)-2-[4-(1H-pyrrol-1-yl)phenyl]-N-[(quinoxalin-6-yl)methyl]acetamide]: the IC50 was in the range of 5 to 10 µM.
Next, `O=C(Cc1ccc(OC(F)(F)F)cc1)N(Cc1ccncc1)C1C=CS(=O)(=O)C1` (stereo not shown) [I-252, N-(1,1-dioxo-2,3-dihydro-1lambda6-thiophen-3-yl)-N-[(pyridin-4-yl)methyl]-2-[4-(trifluoromethoxy)phenyl]acetamide]: 5 to 10 µM; `O=C(Cc1ccc(C(F)(F)F)cc1)N(Cc1ccncc1)C1C=CS(=O)(=O)C1` (stereo not shown) [I-254, N-(1,1-dioxo-2,3-dihydro-1lambda6-thiophen-3-yl)-N-[(pyridin-4-yl)methyl]-2-[4-(trifluoromethyl)phenyl]acetamide]: 5 to 10 µM; `CNC(=O)c1ccc(CN(C(=O)Cc2ccc(-n3cccc3)cc2)C2C=CS(=O)(=O)C2)cc1` (stereo not shown) [I-255, 4-{[N-(1,1-dioxo-2,3-dihydro-1lambda6-thiophen-3-yl)-2-[4-(1H-pyrrol-1-yl)phenyl]acetamido]methyl}-N-methylbenzamide]: 5 to 10 µM.
The figure for `CS(=O)(=O)c1ccc(CN(C(=O)Cc2ccc(-n3cccc3)cc2)C2C=CS(=O)(=O)C2)cc1` (stereo not shown) [I-256, N-(1,1-dioxo-2,3-dihydro-1lambda6-thiophen-3-yl)-N-[(4-methanesulfonylphenyl)methyl]-2-[4-(1H-pyrrol-1-yl)phenyl]acetamide] is 5 to 10 µM; for `O=C(Cc1ccc(-n2cccc2)cc1)N(Cc1ccccc1F)C1C=CS(=O)(=O)C1` (stereo not shown) [I-257, N-(1,1-dioxo-2,3-dihydro-1lambda6-thiophen-3-yl)-N-[(2-fluorophenyl)methyl]-2-[4-(1H-pyrrol-1-yl)phenyl]acetamide] it is 5 to 10 µM.
In the case of `CN(C)C(=O)c1ccc(CN(C(=O)Cc2ccc(-n3cccc3)cc2)C2C=CS(=O)(=O)C2)cc1` (stereo not shown) [I-259, 4-{[N-(1,1-dioxo-2,3-dihydro-1lambda6-thiophen-3-yl)-2-[4-(1H-pyrrol-1-yl)phenyl]acetamido]methyl}-N,N-dimethylbenzamide], the IC50 is 5 to 10 µM.
Next, `O=C(Cc1ccc(C(F)(F)F)cc1F)N(Cc1ccncc1)C1C=CS(=O)(=O)C1` (stereo not shown) [I-260, N-(1,1-dioxo-2,3-dihydro-1lambda6-thiophen-3-yl)-2-[2-fluoro-4-(trifluoromethyl)phenyl]-N-[(pyridin-4-yl)methyl]acetamide]: 5 to 10 µM; `O=C(Cc1ccc(-c2cccc(F)c2F)cc1)N(Cc1ccncc1)C1C=CS(=O)(=O)C1` (stereo not shown) [I-261, 2-{2′,3′-difluoro-[1,1′-biphenyl]-4-yl}-N-(1,1-dioxo-2,3-dihydro-1lambda6-thiophen-3-yl)-N-[(pyridin-4-yl)methyl]acetamide]: 5 to 10 µM.
For `O=C(Cc1ccc(CC(F)(F)F)cc1)N(Cc1ccncc1)C1C=CS(=O)(=O)C1` (stereo not shown) [I-263, N-(1,1-dioxo-2,3-dihydro-1lambda6-thiophen-3-yl)-N-[(pyridin-4-yl)methyl]-2-[4-(2,2,2-trifluoroethyl)phenyl]acetamide], the IC50 lay in the range of 5 to 10 µM.
Next, `CC(C(=O)N(Cc1ccncc1)C1C=CS(=O)(=O)C1)c1ccc(-n2cccc2)cc1` (stereo not shown) [I-265, N-(1,1-dioxo-2,3-dihydro-1lambda6-thiophen-3-yl)-N-[(pyridin-4-yl)methyl]-2-[4-(1H-pyrrol-1-yl)phenyl]propanamide]: 5 to 10 µM; `CC(C(=O)N(Cc1ccncc1)C1C=CS(=O)(=O)C1)c1ccc(-c2ccc(F)cc2)cc1` (stereo not shown) [I-266, N-(1,1-dioxo-2,3-dihydro-1lambda6-thiophen-3-yl)-2-{4′-fluoro-[1,1′-biphenyl]-4-yl}-N-[(pyridin-4-yl)methyl]propanamide]: 5 to 10 µM.
